Results: PMC12652692, “Synthesis and In Vitro Anticancer Evaluation of Novel Phosphonium Derivatives of Chrysin” (International Journal of Molecular Sciences, 2025)

Assays:
Melanoma panel = test: NCI60 five-dose screen, panel mean; type: cell-based; conditions: Homo sapiens; mean over Melanoma panel
Experimental: (§1) Since all new conjugates (3a–h) had notable antiproliferative activities on several tumor cell lines in the course of the one-dose screening, they were subjected to a five-dose test. […] J. Mol. Sci. 2025, 26, 11063 10 of 10 S.3. NCI60 Screening A detailed description of the NCI screening procedures can also be found on the website of NCI [39], and in our previous work. S.3.1. One-Dose Screen All candidates were examined at first at a single high dose (10 μM) in the full NCI60 cell panel. The value reported for the one-dose test is growth relative to the no-drug control and relative to the time zero number of cells. This made possible the disclosure of both growth inhibition (numbers between 0 and 100) and lethality (numbers less than 0). For example, a value of 100 means no growth inhibition. A value of 20 would mean 80% growth inhibition. A value of 0 means no net growth over the course of the analysis. A value of −20 would mean 20% lethality. A value of −100 means all cells are dead. S.3.2. […] The human tumor cell lines of the cancer screening panel were grown in RPMI 1640 medium containing 5% fetal bovine serum and 2 mM l-glutamine. Characteristically, cells were injected in 96-well microtiter plates in 0.1 mL at plating densities ranging from 5000 to 40,000 cells/well, depending on the doubling time of individual cell lines. After cell inoculation, the microtiter plates were incubated at 37 °C, 5% carbon dioxide, 95% air, and 100% relative humidity for 24 hours before the addition of tested compounds. After 24 hours, 2 plates of each cell line were fixed in situ with Cl3COOH (TCA), to represent a measurement of the cell population for each cell line at the time of drug addition (tz). Tested compounds were solubilized in DMSO at 400-fold the desired final maximum test concentration and stored frozen before application. In the course of the drug addition, an aliquot of frozen concentrate was thawed and diluted to twice the desired final maximum test concentration with a complete medium containing 50 μg mL−1 gentamicin. Additional four, 10-fold or ½ log serial dilutions were produced to furnish a total of five drug concentrations plus control. Aliquots of 0.1 mL of these different drug dilutions were added to the appropriate microtiter wells already containing 0.1 mL of medium, resulting in the required final drug concentrations. Following drug addition, the plates were incubated at 37 °C, 5% carbon dioxide, 95% air, and 100% relative humidity for an additional 48 hours. For adherent cells, the test was finished by the addition of cold Cl3COOH. Cells were fixed in situ by the addition of 50 μL of cold 50% (w/v) Cl3COOH, and incubated at 4 °C for 1 hour. The supernatant was discarded, and the plates were washed with H2O (5×) and dried in air. Sulforhodamine B (SRB) solution (0.1 mL) at 0.4% (w/v) in 1% CH3COOH was added to each well, and plates were incubated at RT for 10 min. After staining, the unbound dye was removed by washing five times with 1% CH3COOH, and the plates were dried in the air. The bound stain is afterward solubilized with a 10 mM trizma base, and the absorbance is read on an automated plate reader at λ = 515 nm. Utilizing the seven absorbance measurements [time zero (tz), control growth (c), and test growth in the presence of the drug at the five concentration levels (ti)], the percentage growth was determined at each of the drug concentration levels. Growth inhibition (%) was calculated as: [(ti − tz)/(c − tz)] × 100, for concentrations where ti ≥ tz (1) [(ti − tz)/(tz)] × 100, for concentrations where ti < tz. (2) Three dose‒response parameters were calculated as follows. GI50 (growth inhibition of 50%) was determined from Equation (3), which is the drug concentration resulting in a 50% reduction in the net protein increase (as measured by SRB staining) in control cells in the course of the drug incubation. [(ti − tz)/(c − tz)] × 100 = 50 (3)

Leukemia panel = test: NCI60 five-dose screen, panel mean; type: cell-based; conditions: Homo sapiens; mean over Leukemia panel
Experimental: as §1

Renal Cancer panel = test: NCI60 five-dose screen, panel mean; type: cell-based; conditions: Homo sapiens; mean over Renal Cancer panel
Experimental: as §1

Prostate Cancer panel = test: NCI60 five-dose screen, panel mean; type: cell-based; conditions: Homo sapiens; mean over Prostate Cancer panel
Experimental: as §1

[1] = tested on: Non-small-Cell Lung Cancer panel; test: NCI60 five-dose screen, panel mean; type: cell-based; conditions: Homo sapiens; mean over Non-small-Cell Lung Cancer panel
Experimental: as §1

CNS Cancer panel = test: NCI60 five-dose screen, panel mean; type: cell-based; conditions: Homo sapiens; mean over CNS Cancer panel
Experimental: as §1

Breast Cancer panel = test: NCI60 five-dose screen, panel mean; type: cell-based; conditions: Homo sapiens; mean over Breast Cancer panel
Experimental: as §1

Colon Cancer panel = test: NCI60 five-dose screen, panel mean; type: cell-based; conditions: Homo sapiens; mean over Colon Cancer panel
Experimental: as §1

Ovarian Cancer panel = test: NCI60 five-dose screen, panel mean; type: cell-based; conditions: Homo sapiens; mean over Ovarian Cancer panel
Experimental: as §1

non-tumor CHO cells = test: CellTiter-Glo Luminescent Cell Viability Assay; type: cell-based, Chinese hamster; conditions: 48 h; for IC50: Cricetulus griseus, non-tumor CHO cells, read-out: Estimated IC50
Experimental: (§2) Given their potent antiproliferative effects on tumor cells, two conjugates were selected for testing on non-tumor CHO cells to investigate their selectivity. […] Cell viability of non-tumor CHO cells was assessed using the CellTiter-Glo Luminescent Cell Viability Assay (Promega, Madison, WI, USA), following treatment with 3a and 3f. Stock solutions (10 mM in DMSO) were stored frozen until use. CHO cells were cultured in complete DMEM (low glucose, 1 g/L) supplemented with 10% fetal bovine serum, 1% GlutaMAX-I, 1% non-essential amino acids, and 0.1% penicillin–streptomycin. Cells were seeded into opaque 96-well plates (5000 cells/100 µL/well), with peripheral wells filled with sterile PBS to minimize edge effects. After overnight incubation (37 °C, 5% CO2), cells were treated with increasing concentrations of the compounds (10^−5, 10^−6, and 10^−7 M) diluted in complete DMEM. Untreated cells served as controls, and complete DMEM was used to determine background luminescence. DMSO controls corresponding to the solvent concentrations of each treatment condition were also included; no significant effect on cell viability was observed. After 48 h, CellTiter-Glo reagent was added, and luminescence was measured using an EnSpire AlphaLisa microplate reader (Perkin Elmer). Relative light unit (RLU) values were normalized to untreated controls (100% viability). Non-linear regression analysis was performed in GraphPad Prism 8.0.1 to estimate IC50 values by fitting sigmoidal dose–response curves (log[inhibitor] vs. normalized response, variable slope).

[2] = CellTiter-Glo Luminescent Cell Viability Assay; type: cell-based, Chinese hamster; conditions: Chinese hamster, CHO cells (non-tumor), CHO cells, 10^−6 M
Experimental: as §2

[3] = tested on: 60 human cancer cell lines; set-up: method as in doi:10.3311/PPch.21919, PMID 34874114; conditions: previous work ref 24, 26; cited from earlier work

SMILES | GI50 (Melanoma panel) | GI50 (Leukemia panel) | GI50 (Renal Cancer panel) | GI50 (Prostate Cancer panel) | GI50 [1] | GI50 (CNS Cancer panel) | GI50 (Breast Cancer panel) | GI50 (Colon Cancer panel) | GI50 (Ovarian Cancer panel) | cell viability (non-tumor CHO cells; CHO cells, 10^−6 M) | IC50 (non-tumor CHO cells) | viability at 48 h [2] | antiproliferative effects (in words) [3]
O=c1cc(-c2ccccc2)oc2cc(OCCCC[P+](c3ccccc3)(c3ccccc3)c3ccccc3)cc(O)c12 [3a] | 300 nM | 260 nM | 530 nM | 410 nM | 460 nM | 300 nM | 240 nM | 620 nM | 890 nM | minimally affected | 2650 nM | – | –
Cc1ccc([P+](CCCCOc2cc(O)c3c(=O)cc(-c4ccccc4)oc3c2)(c2ccc(C)cc2)c2ccc(C)cc2)cc1 [3b] | 320 nM | 220 nM | 310 nM | 200 nM | 310 nM | 300 nM | 250 nM | 390 nM | 480 nM | – | – | – | –
COc1ccc([P+](CCCCOc2cc(O)c3c(=O)cc(-c4ccccc4)oc3c2)(c2ccc(OC)cc2)c2ccc(OC)cc2)cc1 [3c] | 350 nM | 340 nM | 1030 nM | 370 nM | 590 nM | 460 nM | 330 nM | 640 nM | 760 nM | – | – | – | –
O=c1cc(-c2ccccc2)oc2cc(OCCCC[P+](c3ccc(F)cc3)(c3ccc(F)cc3)c3ccc(F)cc3)cc(O)c12 [3d] | 1740 nM | 1710 nM | 2100 nM | 1740 nM | 1970 nM | 1670 nM | 1610 nM | 1690 nM | 3900 nM | – | – | – | –
O=c1cc(-c2ccccc2)oc2cc(OCCCC[P+](C3CCCCC3)(C3CCCCC3)C3CCCCC3)cc(O)c12 [3e] | 550 nM | 420 nM | 1300 nM | 870 nM | 1070 nM | 750 nM | 590 nM | 940 nM | 1950 nM | – | – | – | –
COc1c(C)cc([P+](CCCCOc2cc(O)c3c(=O)cc(-c4ccccc4)oc3c2)(c2cc(C)c(OC)c(C)c2)c2cc(C)c(OC)c(C)c2)cc1C [3f] | 310 nM | 120 nM | 320 nM | 310 nM | 290 nM | 280 nM | 220 nM | 410 nM | 510 nM | – | 1150 nM | 60.2 ± 2.9% | –
Cc1ccccc1[P+](CCCCOc1cc(O)c2c(=O)cc(-c3ccccc3)oc2c1)(c1ccccc1C)c1ccccc1C [3g] | 270 nM | 210 nM | 580 nM | 340 nM | 450 nM | 330 nM | 250 nM | 580 nM | 820 nM | – | – | – | –
O=c1cc(-c2ccccc2)oc2cc(OCCCC[P+](c3ccccc3)(c3ccccc3)c3ccccn3)cc(O)c12 [3h] | 520 nM | 260 nM | 1350 nM | 900 nM | 1070 nM | 770 nM | 530 nM | 1070 nM | 1890 nM | – | – | – | –
O=c1cc(-c2ccccc2)oc2cc(O)cc(O)c12 [compound 2, 5,7-dihydroxyflavone, reference compound] | – | – | – | – | – | – | – | – | – | – | – | – | does not exert remarkable antiproliferative effects
